Laboratory results from BindingDB's records for patent US9815850 (Denali Therapeutics Inc., 2017).

Target: T1, Receptor-interacting serine/threonine-protein kinase 1 (Homo sapiens, UniProt Q13546)
T1 sequence (Q13546 whole entry): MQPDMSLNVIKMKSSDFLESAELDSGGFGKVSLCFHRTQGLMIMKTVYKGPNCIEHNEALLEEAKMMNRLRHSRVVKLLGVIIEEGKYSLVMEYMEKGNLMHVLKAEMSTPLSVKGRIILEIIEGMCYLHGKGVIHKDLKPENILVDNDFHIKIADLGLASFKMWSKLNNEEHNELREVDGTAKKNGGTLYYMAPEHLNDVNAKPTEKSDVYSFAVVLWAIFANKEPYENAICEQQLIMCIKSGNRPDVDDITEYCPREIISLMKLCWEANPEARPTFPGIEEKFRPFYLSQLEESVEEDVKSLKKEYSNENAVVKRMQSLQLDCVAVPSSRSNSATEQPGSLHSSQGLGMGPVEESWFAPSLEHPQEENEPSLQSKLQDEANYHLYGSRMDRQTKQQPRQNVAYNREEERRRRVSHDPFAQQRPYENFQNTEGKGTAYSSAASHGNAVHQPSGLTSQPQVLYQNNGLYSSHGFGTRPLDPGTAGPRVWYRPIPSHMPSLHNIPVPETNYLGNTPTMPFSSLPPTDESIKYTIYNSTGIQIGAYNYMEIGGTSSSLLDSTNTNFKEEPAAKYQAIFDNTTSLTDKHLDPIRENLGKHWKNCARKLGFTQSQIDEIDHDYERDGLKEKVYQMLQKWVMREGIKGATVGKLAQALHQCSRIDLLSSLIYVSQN
Test: Fluorescent Polarization Binding (FP Binding) assay
Description: For negative control the enzyme addition was replaced by assay buffer only.

O=C(N[C@H]1COc2ccccc2-n2cnnc21)c1cc(Cc2ccccc2)[nH]n1 [US9815850, Compound 70A]
IC50: in the range around 500 nM
